The values below come from PMC8213057, “Targeting ALK2: An Open Science Approach to Developing Therapeutics for the Treatment of Diffuse Intrinsic Pontine Glioma” (Journal of Medicinal Chemistry, 2020).

The target of one test is JNK2 (Homo sapiens, UniProt P45984). Conditions: 1 μM; Run 1, Run 2.
For the next test, the target named is T1, GRK1 (Homo sapiens, UniProt Q15835).
T1 sequence (Q15835 1-563): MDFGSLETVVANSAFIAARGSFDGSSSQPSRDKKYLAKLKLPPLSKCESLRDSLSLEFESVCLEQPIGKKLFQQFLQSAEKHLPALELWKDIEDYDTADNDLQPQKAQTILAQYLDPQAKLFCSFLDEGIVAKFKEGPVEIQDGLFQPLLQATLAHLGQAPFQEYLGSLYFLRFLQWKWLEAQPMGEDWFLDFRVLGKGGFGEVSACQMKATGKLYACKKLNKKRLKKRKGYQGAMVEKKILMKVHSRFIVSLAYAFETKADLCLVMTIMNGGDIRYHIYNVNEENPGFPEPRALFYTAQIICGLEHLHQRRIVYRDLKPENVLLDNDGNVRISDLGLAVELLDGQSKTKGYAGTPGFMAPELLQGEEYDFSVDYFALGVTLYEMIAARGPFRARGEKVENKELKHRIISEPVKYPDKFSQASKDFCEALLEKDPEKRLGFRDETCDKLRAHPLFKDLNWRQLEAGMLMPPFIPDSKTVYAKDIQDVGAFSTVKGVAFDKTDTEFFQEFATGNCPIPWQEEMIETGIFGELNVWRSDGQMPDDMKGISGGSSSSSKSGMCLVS
Conditions: 1 μM; Run 1, Run 2.

For the next test, the target named is CDK2/cyclin E2 (Homo sapiens, UniProt P24941). Conditions: 1 μM; Run 1, Run 2.
For a further test, the target named is CAMKK2 (Homo sapiens, UniProt Q96RR4). The test is described as follows: biochemical. Conditions: read-out: % enzyme activity, 1 μM; Run 1, Run 2.
CAMKK2, sequence (Q96RR4 whole entry): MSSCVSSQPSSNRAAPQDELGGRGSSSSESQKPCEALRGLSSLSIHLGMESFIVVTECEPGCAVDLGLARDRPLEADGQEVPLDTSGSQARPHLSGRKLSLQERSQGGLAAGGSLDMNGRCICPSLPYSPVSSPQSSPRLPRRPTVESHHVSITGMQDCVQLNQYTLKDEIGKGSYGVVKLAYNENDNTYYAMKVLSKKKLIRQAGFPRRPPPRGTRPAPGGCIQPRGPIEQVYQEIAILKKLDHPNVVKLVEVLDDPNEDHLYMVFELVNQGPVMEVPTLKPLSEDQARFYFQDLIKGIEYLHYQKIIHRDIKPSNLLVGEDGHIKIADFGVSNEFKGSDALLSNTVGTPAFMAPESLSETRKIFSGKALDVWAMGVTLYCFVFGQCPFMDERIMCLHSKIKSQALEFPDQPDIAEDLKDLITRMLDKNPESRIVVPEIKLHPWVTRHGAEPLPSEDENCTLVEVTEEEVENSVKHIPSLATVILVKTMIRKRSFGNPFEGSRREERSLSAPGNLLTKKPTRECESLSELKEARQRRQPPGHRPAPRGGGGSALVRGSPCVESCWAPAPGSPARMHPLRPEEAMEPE
The target of the next test is IR (Homo sapiens, UniProt P06213). The test is described as follows: biochemical. Conditions: read-out: % enzyme activity, 1 μM; Run 1, Run 2.
IR, sequence (P06213 28-1382): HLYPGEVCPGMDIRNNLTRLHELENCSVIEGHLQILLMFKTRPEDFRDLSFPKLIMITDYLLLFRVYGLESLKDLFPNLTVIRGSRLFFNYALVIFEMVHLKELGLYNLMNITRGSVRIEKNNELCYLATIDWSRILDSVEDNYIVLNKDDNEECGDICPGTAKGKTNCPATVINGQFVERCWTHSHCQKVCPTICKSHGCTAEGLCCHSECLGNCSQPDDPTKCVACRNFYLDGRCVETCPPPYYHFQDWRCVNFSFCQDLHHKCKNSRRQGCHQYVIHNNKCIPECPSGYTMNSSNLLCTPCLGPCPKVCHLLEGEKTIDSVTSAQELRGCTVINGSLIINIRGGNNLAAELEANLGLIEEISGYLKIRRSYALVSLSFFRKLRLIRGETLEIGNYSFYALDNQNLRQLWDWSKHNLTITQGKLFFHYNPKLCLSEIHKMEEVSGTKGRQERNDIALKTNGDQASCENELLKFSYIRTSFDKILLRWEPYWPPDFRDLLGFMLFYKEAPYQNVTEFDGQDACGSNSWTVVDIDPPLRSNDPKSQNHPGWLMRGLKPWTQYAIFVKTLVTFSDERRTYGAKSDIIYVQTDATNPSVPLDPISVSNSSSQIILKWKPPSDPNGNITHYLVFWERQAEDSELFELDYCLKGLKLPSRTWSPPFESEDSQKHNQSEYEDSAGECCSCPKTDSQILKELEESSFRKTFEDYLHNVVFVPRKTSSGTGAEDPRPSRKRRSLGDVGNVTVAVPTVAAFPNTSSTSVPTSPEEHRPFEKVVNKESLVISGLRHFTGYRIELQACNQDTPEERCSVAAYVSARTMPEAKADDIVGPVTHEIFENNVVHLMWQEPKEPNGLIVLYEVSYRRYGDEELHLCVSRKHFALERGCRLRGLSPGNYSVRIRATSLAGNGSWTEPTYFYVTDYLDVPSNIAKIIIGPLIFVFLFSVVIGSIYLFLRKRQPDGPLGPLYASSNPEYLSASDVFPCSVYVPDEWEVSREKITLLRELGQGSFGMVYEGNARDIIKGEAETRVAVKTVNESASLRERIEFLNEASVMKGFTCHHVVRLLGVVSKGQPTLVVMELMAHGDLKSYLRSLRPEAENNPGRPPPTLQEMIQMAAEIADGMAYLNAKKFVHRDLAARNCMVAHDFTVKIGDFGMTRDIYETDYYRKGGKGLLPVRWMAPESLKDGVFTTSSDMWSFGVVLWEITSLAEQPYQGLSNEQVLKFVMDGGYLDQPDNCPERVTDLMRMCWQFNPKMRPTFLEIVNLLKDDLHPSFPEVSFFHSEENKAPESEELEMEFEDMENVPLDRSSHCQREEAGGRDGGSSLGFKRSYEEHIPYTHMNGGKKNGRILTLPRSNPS
Another test addresses PLK3 (Homo sapiens, UniProt Q9H4B4). Conditions: 1 μM; Run 1, Run 2.
The next test addresses T2, ERK7/MAPK15 (Homo sapiens, UniProt Q8TD08).
T2 sequence (Q8TD08 1-544): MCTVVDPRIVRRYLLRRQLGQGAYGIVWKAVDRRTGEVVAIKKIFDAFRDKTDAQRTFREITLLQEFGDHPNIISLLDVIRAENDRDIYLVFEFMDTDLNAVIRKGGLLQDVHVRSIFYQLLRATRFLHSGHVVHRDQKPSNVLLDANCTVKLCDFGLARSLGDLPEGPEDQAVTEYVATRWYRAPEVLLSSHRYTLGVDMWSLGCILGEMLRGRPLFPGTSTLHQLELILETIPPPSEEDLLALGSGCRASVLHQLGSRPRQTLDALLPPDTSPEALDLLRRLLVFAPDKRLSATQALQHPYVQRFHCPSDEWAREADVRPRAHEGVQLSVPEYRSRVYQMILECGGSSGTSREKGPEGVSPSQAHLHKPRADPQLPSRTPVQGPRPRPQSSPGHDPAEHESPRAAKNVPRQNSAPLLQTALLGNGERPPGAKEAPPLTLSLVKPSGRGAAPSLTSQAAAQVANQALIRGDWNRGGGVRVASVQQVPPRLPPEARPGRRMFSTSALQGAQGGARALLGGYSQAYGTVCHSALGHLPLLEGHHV
Conditions: 1 μM; Run 1, Run 2.

In a further test the target is T3, PKCzeta (Homo sapiens, UniProt Q05513).
T3 sequence (Q05513 1-592): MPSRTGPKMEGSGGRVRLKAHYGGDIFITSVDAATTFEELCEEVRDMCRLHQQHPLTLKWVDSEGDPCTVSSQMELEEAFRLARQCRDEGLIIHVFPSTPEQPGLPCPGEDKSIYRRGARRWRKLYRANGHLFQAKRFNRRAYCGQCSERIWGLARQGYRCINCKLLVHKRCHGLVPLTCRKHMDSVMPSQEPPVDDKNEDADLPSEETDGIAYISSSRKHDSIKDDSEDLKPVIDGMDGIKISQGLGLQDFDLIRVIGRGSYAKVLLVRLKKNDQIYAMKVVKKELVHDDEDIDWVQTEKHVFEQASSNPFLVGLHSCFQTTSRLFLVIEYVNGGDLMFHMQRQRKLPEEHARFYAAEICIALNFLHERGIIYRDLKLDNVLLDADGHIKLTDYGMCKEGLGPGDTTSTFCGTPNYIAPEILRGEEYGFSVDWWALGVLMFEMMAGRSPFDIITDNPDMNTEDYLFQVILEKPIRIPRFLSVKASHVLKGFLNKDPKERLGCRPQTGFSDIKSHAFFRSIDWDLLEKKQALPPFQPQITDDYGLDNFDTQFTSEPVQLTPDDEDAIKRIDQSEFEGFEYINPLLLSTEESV
The test is described as follows: biochemical. Conditions: read-out: % enzyme activity, 1 μM; Run 1, Run 2.

The target of the next test is T4, HIPK4 (Homo sapiens, UniProt Q8NE63).
T4 sequence (Q8NE63 1-616): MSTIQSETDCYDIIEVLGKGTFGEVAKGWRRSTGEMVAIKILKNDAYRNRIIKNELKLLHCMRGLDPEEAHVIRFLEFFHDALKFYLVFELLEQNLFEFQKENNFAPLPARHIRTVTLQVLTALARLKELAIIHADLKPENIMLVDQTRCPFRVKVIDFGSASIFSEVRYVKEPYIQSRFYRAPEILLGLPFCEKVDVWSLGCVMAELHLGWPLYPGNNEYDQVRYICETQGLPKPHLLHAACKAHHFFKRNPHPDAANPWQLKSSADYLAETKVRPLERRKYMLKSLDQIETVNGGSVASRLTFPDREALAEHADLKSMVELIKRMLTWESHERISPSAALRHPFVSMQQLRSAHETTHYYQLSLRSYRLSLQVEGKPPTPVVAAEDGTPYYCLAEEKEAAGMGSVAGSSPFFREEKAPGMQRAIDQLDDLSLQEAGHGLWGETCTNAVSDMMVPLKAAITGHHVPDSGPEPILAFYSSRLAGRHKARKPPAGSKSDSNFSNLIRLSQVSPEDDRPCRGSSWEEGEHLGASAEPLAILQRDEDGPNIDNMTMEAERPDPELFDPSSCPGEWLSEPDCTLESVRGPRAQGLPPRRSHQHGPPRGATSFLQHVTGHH
The test is described as follows: biochemical. Conditions: read-out: % enzyme activity, 1 μM; Run 1, Run 2.

The target in another test is FES/FPS (Homo sapiens, UniProt P07332). Conditions: 1 μM; Run 1, Run 2.
FES/FPS, sequence (P07332 whole entry): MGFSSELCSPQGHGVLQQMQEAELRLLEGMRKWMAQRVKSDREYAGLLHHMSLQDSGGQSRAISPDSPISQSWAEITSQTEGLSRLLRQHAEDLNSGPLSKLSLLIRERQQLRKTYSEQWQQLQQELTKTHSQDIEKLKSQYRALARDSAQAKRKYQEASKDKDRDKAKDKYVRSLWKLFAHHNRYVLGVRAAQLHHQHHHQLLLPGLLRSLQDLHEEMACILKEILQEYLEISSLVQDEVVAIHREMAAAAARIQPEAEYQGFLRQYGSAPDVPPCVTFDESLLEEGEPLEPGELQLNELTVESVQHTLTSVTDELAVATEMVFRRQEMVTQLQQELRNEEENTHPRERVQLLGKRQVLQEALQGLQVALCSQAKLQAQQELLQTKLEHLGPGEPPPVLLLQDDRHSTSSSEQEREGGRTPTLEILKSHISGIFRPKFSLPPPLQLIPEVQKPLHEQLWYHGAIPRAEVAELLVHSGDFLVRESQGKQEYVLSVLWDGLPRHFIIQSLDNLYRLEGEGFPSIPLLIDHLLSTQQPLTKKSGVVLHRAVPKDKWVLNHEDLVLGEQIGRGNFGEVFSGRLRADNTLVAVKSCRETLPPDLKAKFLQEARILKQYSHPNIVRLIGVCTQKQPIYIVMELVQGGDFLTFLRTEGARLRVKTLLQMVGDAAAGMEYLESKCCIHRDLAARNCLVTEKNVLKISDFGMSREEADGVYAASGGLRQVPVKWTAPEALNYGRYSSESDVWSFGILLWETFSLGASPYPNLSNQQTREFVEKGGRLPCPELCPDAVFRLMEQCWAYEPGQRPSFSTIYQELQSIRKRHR

PLK3, sequence (Q9H4B4 whole entry): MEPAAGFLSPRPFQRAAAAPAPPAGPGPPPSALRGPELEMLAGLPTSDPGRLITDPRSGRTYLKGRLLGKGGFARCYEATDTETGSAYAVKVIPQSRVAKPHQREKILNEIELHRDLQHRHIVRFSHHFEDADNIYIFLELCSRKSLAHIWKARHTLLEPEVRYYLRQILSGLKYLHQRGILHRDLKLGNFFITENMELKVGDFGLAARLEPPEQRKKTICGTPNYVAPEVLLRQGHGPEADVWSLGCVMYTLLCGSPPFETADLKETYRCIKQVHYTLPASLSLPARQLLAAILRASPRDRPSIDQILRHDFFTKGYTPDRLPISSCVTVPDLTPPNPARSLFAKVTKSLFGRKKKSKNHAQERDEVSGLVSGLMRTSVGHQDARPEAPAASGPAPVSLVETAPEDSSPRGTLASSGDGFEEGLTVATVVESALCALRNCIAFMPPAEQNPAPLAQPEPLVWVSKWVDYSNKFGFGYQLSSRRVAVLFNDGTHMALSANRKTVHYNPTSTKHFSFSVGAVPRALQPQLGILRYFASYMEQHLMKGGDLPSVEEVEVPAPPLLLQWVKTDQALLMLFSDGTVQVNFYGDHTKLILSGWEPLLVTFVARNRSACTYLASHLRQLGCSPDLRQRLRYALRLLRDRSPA
JNK2, sequence (P45984 whole entry): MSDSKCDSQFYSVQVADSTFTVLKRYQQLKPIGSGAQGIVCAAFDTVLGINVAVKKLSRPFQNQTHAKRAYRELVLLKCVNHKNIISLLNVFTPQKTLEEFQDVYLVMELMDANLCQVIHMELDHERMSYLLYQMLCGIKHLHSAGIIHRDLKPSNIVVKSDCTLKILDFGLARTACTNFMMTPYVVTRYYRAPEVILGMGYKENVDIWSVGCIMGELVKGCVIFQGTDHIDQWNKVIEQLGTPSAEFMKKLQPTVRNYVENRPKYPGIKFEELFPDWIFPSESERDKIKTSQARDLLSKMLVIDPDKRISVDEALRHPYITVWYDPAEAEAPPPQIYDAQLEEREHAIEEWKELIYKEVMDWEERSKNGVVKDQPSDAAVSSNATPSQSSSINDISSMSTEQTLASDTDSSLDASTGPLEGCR

For `COc1cc(-c2cncc(-c3ccc(N4CCN(C)CC4)cc3)c2C)cc(F)c1C(N)=O` [Compound 26a, 2-Fluoro-6-methoxy-4-(4-methyl-5-(4-(4-methylpiperazin-1-yl)phenyl)pyridin-3-yl)benzamide], the “% enzyme activity” value at JNK2 is 91.99%; on GRK1, 93.15%; at CDK2/cyclin E2, 104.96%; at PLK3, 93.70%; at ERK7/MAPK15, 85.69%; at FES/FPS, 99.20%. For the same compound, the remaining activity at 1 µM was determined as 71.7% on CAMKK2, 102% on IR, 91.2% at PKCzeta and 104% on HIPK4. Also, at CYP2B6, the CYP inhibition was greater than 50 µM.
For `COc1cc(-c2cncc(-c3ccc(N4C[C@@H](C)N(C)[C@@H](C)C4)cc3)c2C)cc(F)c1C(N)=O` [Compound 26c, 2-Fluoro-6-methoxy-4-(4-methyl-5-(4-((3R,5S)-3,4,5-trimethylpiperazin-1-yl)phenyl)pyridin-3-yl)benzamide], the “% enzyme activity” value at JNK2 worked out at 94.14%; at GRK1 it was 94.01%; on CDK2/cyclin E2, 93.14%; at PLK3, 94.47%; on ERK7/MAPK15 it was 96.45%; on FES/FPS it was 98.66%. In addition, the remaining activity at 1 µM at CAMKK2 came out at 76.4%; on IR it was 100%; on PKCzeta it was 92.5%; at HIPK4, 101%. This compound also displayed a CYP inhibition on CYP2B6 greater than 50 µM.
